# Literature values in patent US12358889B2, “Vaporizable alkaloid compositions and methods of use thereof” (Ready Mix Naturals, LLC, priority 2023, dated 2025).
# Legend:
# TRPV1 = TRPV1 (Homo sapiens, UniProt Q8NER1); settings: among phytocannabinoids
# TRPV2 = target: T1, TRPV2 (Homo sapiens, UniProt Q9Y5S1); settings: among phytocannabinoids
# T1 sequence (Q9Y5S1 1-764): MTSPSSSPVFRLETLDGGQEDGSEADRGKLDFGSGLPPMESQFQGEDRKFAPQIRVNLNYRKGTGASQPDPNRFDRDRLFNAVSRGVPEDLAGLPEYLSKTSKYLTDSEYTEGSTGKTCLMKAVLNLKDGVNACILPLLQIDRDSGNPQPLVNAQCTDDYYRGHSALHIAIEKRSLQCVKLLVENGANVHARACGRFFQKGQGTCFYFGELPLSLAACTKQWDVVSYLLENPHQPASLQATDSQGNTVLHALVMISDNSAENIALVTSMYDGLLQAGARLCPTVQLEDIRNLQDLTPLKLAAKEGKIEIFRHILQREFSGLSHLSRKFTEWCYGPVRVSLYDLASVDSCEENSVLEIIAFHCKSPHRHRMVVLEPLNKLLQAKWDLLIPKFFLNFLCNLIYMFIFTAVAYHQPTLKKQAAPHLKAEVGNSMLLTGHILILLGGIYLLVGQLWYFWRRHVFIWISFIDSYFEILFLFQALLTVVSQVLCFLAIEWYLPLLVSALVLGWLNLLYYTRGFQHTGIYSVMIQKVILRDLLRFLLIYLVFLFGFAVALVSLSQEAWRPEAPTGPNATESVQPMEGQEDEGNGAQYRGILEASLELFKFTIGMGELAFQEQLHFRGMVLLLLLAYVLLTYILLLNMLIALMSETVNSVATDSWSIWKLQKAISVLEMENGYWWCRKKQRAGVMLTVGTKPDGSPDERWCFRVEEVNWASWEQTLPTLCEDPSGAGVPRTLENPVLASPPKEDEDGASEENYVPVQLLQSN
# TRPA1 = TRPA1 (Homo sapiens, UniProt O75762)
# Chain of TRPA1 (O75762 whole entry, species assumed): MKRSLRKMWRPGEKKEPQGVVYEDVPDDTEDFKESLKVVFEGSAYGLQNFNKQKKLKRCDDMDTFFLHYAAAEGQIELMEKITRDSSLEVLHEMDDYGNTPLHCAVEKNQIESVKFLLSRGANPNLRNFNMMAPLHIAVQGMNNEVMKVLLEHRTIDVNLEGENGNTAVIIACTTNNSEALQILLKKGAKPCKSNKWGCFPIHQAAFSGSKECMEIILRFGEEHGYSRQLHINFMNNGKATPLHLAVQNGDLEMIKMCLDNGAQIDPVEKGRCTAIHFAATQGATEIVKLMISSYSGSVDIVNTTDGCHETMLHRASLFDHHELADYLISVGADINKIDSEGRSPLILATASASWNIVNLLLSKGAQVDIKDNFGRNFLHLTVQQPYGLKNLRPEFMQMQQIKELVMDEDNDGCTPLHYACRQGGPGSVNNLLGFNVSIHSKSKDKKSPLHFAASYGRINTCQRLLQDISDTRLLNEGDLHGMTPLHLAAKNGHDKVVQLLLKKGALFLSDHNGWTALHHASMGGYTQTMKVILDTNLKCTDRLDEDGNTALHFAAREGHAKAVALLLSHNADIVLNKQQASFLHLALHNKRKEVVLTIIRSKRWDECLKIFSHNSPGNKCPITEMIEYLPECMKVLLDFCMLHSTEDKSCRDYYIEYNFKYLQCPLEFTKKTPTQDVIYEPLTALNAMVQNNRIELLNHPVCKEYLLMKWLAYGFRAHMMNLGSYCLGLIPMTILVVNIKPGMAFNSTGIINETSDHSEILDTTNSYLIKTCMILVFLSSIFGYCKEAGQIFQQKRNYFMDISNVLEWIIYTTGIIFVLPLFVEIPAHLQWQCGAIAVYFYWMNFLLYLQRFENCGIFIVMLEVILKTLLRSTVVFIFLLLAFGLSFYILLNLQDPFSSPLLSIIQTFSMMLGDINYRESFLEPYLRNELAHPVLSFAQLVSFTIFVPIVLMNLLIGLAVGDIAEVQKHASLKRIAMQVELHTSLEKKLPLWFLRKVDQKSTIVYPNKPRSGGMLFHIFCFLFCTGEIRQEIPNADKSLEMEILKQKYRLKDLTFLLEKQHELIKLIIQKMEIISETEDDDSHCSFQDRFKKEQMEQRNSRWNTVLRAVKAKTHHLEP
# Chain of TRPV1 (Q8NER1 whole entry, species assumed): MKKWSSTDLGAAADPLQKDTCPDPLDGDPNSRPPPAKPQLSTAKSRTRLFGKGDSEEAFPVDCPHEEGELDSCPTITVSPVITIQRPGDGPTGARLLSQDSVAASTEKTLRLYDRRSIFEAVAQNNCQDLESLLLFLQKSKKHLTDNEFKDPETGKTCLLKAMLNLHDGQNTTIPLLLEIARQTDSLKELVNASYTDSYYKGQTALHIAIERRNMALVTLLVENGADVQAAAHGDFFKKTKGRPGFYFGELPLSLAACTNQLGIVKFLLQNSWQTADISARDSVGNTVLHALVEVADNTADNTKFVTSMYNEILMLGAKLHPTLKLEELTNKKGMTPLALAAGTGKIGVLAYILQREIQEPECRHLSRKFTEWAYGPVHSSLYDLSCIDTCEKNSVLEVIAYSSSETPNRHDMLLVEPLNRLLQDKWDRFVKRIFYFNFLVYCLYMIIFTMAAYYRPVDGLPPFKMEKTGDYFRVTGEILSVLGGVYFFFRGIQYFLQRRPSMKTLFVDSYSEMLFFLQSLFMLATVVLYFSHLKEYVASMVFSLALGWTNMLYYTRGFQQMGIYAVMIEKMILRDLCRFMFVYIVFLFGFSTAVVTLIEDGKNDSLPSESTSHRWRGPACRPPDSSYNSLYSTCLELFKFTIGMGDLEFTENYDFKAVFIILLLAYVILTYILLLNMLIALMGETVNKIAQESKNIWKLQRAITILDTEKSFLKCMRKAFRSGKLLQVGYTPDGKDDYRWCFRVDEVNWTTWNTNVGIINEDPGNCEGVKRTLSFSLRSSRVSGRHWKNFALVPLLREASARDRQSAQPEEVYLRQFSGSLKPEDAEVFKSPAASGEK
Compound,agonism of TRPV1 (TRPV1),activation of TRPV2 (TRPV2),activation of TRPA1 (TRPA1)
"C=C(C)[C@@H]1CCC(C)=C[C@H]1c1c(O)cc(CCCCC)cc1O [CBD, cannabidiol]",most potent and efficacious phytocannabinoid agonist of TRPV1,–,–
"CCCCCc1cc(O)c2c(c1)OC(C)(C)[C@@H]1CCC(C)=C[C@@H]21 [Δ^9-THC, Δ^9-tetrahydrocannabinol]",–,most potent phytocannabinoid for activating TRPV2,also activates TRPA1
CN1CCCC1c1cccnc1 (stereo not shown) [nicotine],–,–,known activator of TRPA1
